In brackets after ≈: the same amount, converted by molar mass.
Experiments:
Staphylococcus aureus = test: In vitro antibacterial activity against Staphylococcus aureus A9537; format: functional
Escherichia coli = test: In vitro antibacterial activity against Escherichia coli A15119; format: functional
Enterobacter cloacae = test: In vitro antibacterial activity against Enterobacter cloacae A9656; format: functional
Morganella morganii = test: In vitro antibacterial activity against Morganella morganii A15153; format: functional
[1] = Solubility (water, 22C, pH 7.2); format: physicochemical; settings: read-out: S
Proteus mirabilis = test: In vitro antibacterial activity against Proteus mirabilis A9900; format: functional
[2] = Partition coefficient (logD); format: physicochemical; settings: octanol/water
Klebsiella pneumoniae = test: In vitro antibacterial activity against Klebsiella pneumoniae A9664; format: functional
Enterococcus faecalis = test: In vitro antibacterial activity against Enterococcus faecalis A9809; format: functional
Bacteroides fragilis = test: In vitro antibacterial activity against Bacteroides fragilis A-22,862; format: functional
Serratia marcescens = test: In vitro antibacterial activity against Serratia marcescens A20019; format: functional
Pseudomonas aeruginosa = test: In vitro antibacterial activity against Pseudomonas aeruginosa A9843; format: functional
Streptococcus pneumoniae = test: In vitro antibacterial activity against Streptococcus pneumoniae A9585.; format: functional
[3] = Peak concentration in blood after peroral administration to mice; format: ADME, organism-based; parameters: route oral; settings: mouse, po
Mus musculus [4] = test: In vivo efficacy on systemic infections caused by Streptococcus pneumoniae A9585 in mice after peroral administration; format: functional; settings: po, read-out: PD50
Mus musculus [5] = test: Area under curve measured as conc vs time after intravenous administration to mice.; format: ADME, organism-based; parameters: unit not given here; settings: in vivo
Mus musculus [6] = test: In vivo efficacy on systemic infections caused by Pseudomonas aeruginosa A9843 in mice after peroral administration; format: functional; settings: po, read-out: PD50
Mus musculus [7] = test: Area under curve measured as conc vs time after peroral administration to mice.; format: ADME, organism-based; parameters: unit not given here; settings: in vivo, po
[8] = Plasma half-life after peroral administration to mice; format: ADME, organism-based; settings: mouse, po
Mus musculus [9] = test: In vivo efficacy on systemic infections caused by Streptococcus pneumoniae A9585 in mice after intramuscular administration; format: functional; settings: im, read-out: PD50
Mus musculus [10] = test: In vivo efficacy on systemic infections caused by Staphylococcus aureus A15090 in mice after intramuscular administration; format: functional; settings: im, read-out: PD50
Mus musculus [11] = test: In vivo efficacy on systemic infections caused by Escherichia coli A15119 in mice after intramuscular administration; format: functional; settings: im, read-out: PD50
[12] = Plasma half-life after intravenous administration to mice; format: ADME, organism-based; settings: mouse
[13] = Peak concentration in blood after intravenous administration to mice; format: ADME, organism-based; parameters: route intravenous; settings: mouse
Mus musculus [14] = test: In vivo efficacy on systemic infections caused by Pseudomonas aeruginosa A9843 in mice after intramuscular administration; format: functional; settings: im, read-out: PD50
Mus musculus [15] = test: In vivo efficacy on systemic infections caused by Staphylococcus aureus A15090 in mice after peroral administration; format: functional; settings: po, read-out: PD50
[16] = percent urinary recovery in 24 hr after intravenous administration to mice; format: ADME, organism-based; settings: mouse, urine, read-out: UR
[17] = Percent urinary recovery in 24 hr after peroral administration to mice; format: ADME, organism-based; settings: mouse, urine, po; read-out: UR
Mus musculus [18] = test: In vivo efficacy on systemic infections caused by Escherichia coli A15119 in mice after peroral administration; format: functional; settings: po, read-out: PD50
[19] = Acute toxicity after peroral administration to mice; format: organism-based; settings: mouse, in vivo, po
[20] = Acute toxicity after intravenous administration to mice; format: organism-based; settings: mouse, in vivo

Structure (SMILES)	MIC (Staphylococcus aureus)	MIC (Escherichia coli)	MIC (Enterobacter cloacae)	MIC (Morganella morganii)	solubility [1]	MIC (Proteus mirabilis)	logD [2]	MIC (Klebsiella pneumoniae)	MIC (Enterococcus faecalis)	MIC (Bacteroides fragilis)	MIC (Serratia marcescens)	MIC (Pseudomonas aeruginosa)	MIC (Streptococcus pneumoniae)	Cmax [3]	ED50 (Mus musculus [6])	half-life [8]	ED50 (Mus musculus [11])	half-life [12]	Cmax [13]	ED50 (Mus musculus [14])	also measured
CC(C)(C)n1cc(C(=O)O)c(=O)c2cc(F)c(N3C[C@H]4C[C@]3(C)CN4)nc21.Cl	1 µg/mL	0.25 µg/mL	0.25 µg/mL	2 µg/mL	6 µg/mL	2 µg/mL	-0.37	0.5 µg/mL	16 µg/mL	64 µg/mL	1 µg/mL	4 µg/mL	2 µg/mL	–	–	–	–	–	–	–	–
Cc1c(F)c(N2C[C@H]3C[C@@H]2[C@H](C)N3)nc2c1c(=O)c(C(=O)O)cn2C1CC1.Cl	0.016 µg/mL	0.004 µg/mL	0.016 µg/mL	0.06 µg/mL	6 µg/mL	0.06 µg/mL	0.71	0.016 µg/mL	0.13 µg/mL	2 µg/mL	0.13 µg/mL	0.13 µg/mL	0.06 µg/mL	6000 ng/mL	0.34 mg/kg	4.2 h	0.1 mg/kg	4.8 h	12000 ng/mL	0.78 mg/kg	ED50 (Mus musculus [4]): 18.9 mg/kg; AUC (Mus musculus [5]): 59; AUC (Mus musculus [7]): 41; ED50 (Mus musculus [9]): 18.9 mg/kg; ED50 (Mus musculus [10]): 0.34 mg/kg; ED50 (Mus musculus [15]): 1.8 mg/kg; dose excreted at 24 h [16]: 16%; dose excreted at 24 h [17]: 18%
CN1C[C@H]2C[C@@H]1CN2c1nc2c(cc1F)c(=O)c(C(=O)O)cn2C(C)(C)C	0.13 µg/mL (≈ 0.347 µM)	0.25 µg/mL (≈ 0.668 µM)	0.13 µg/mL (≈ 0.347 µM)	0.5 µg/mL (≈ 1.34 µM)	310 µg/mL (≈ 828 µM)	1 µg/mL (≈ 2.67 µM)	0.21	0.13 µg/mL (≈ 0.347 µM)	–	–	0.25 µg/mL (≈ 0.668 µM)	2 µg/mL (≈ 5.34 µM)	–	13000 ng/mL	10.2 mg/kg	1.33 h	1 mg/kg	1.6 h	14000 ng/mL	4.7 mg/kg	ED50 (Mus musculus [18]): 2.4 mg/kg; AUC (Mus musculus [5]): 14; AUC (Mus musculus [7]): 18; LD50 [19]: 1000 mg/kg; dose excreted at 24 h [16]: 15%; dose excreted at 24 h [17]: 3%; LD50 [20]: 188 mg/kg
Cc1c(F)c(N2C[C@H]3C[C@@H]2[C@@H](C)N3)nc2c1c(=O)c(C(=O)O)cn2C1CC1.Cl	0.016 µg/mL	0.016 µg/mL	0.06 µg/mL	0.25 µg/mL	150 µg/mL	0.25 µg/mL	0.71	0.06 µg/mL	0.25 µg/mL	8 µg/mL	0.5 µg/mL	1 µg/mL	0.13 µg/mL	–	–	–	–	–	–	–	–
Cc1c(F)c(N2[C@H]3CN[C@H](C3)[C@H]2C)nc2c1c(=O)c(C(=O)O)cn2C1CC1.Cl	0.03 µg/mL	0.016 µg/mL	0.06 µg/mL	0.25 µg/mL	220 µg/mL	0.5 µg/mL	1	0.06 µg/mL	0.025 µg/mL	8 µg/mL	0.5 µg/mL	2 µg/mL	0.25 µg/mL	–	–	–	–	–	–	–	–
C[C@@H]1[C@H]2C[C@H](CN2)N1c1nc2c(cc1F)c(=O)c(C(=O)O)cn2C(C)(C)C.Cl	0.03 µg/mL	0.016 µg/mL	0.06 µg/mL	0.5 µg/mL	11800 µg/mL	0.5 µg/mL	0.17	0.25 µg/mL	0.5 µg/mL	1 µg/mL	0.25 µg/mL	1 µg/mL	0.13 µg/mL	5000 ng/mL	22 mg/kg	0.8 h	2.4 mg/kg	0.733 h	13000 ng/mL	12.5 mg/kg	ED50 (Mus musculus [18]): 12.5 mg/kg; AUC (Mus musculus [5]): 10; AUC (Mus musculus [7]): 5; ED50 (Mus musculus [10]): 7.5 mg/kg; ED50 (Mus musculus [15]): 13.1 mg/kg; dose excreted at 24 h [16]: 2%; dose excreted at 24 h [17]: 1%
CC(C)(C)n1cc(C(=O)O)c(=O)c2cc(F)c(N3C[C@H]4C[C@@H]3CN4)nc21	0.03 µg/mL (≈ 0.0832 µM)	0.008 µg/mL (≈ 0.0222 µM)	0.016 µg/mL (≈ 0.0444 µM)	0.03 µg/mL (≈ 0.0832 µM)	80 µg/mL (≈ 222 µM)	0.06 µg/mL (≈ 0.166 µM)	-0.41	0.016 µg/mL (≈ 0.0444 µM)	0.13 µg/mL (≈ 0.361 µM)	0.5 µg/mL (≈ 1.39 µM)	0.06 µg/mL (≈ 0.166 µM)	0.25 µg/mL (≈ 0.694 µM)	0.13 µg/mL (≈ 0.361 µM)	10000 ng/mL	4.7 mg/kg	1.6 h	0.5 mg/kg	1.22 h	20000 ng/mL	1.4 mg/kg	ED50 (Mus musculus [4]): 28 mg/kg; ED50 (Mus musculus [9]): 18.9 mg/kg; ED50 (Mus musculus [10]): 0.9 mg/kg; LD50 [19]: 5000 mg/kg; ED50 (Mus musculus [15]): 1.6 mg/kg; dose excreted at 24 h [16]: 30%; dose excreted at 24 h [17]: 34%; LD50 [20]: 303 mg/kg
